Measurements taken from PubChem BioAssay (NCI).
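Cells were grown in 96-well plates and exposed to each compound for 48 hours at five concentrations; endpoints were interpolated linearly between bracketing concentrations, or set to the highest concentration if not reached. Abbreviation: GI50, concentration required for 50% inhibition of growth. Definition used: TGI = concentration required for complete inhibition of growth.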

Assays:
Test in all cases: NCI anticancer screen, dose series, 48 h
NCI-H522 lung = test system: NCI-H522 lung
HCT-116 colon = test system: HCT-116 colon
HT29 colon = test system: HT29 colon
K-562 leukemia = test system: K-562 leukemia
SNB-75 CNS = test system: SNB-75 CNS
SF-539 CNS = test system: SF-539 CNS
A549 NSCLC = test system: A549 NSCLC
OVCAR-8 ovarian = test system: OVCAR-8 ovarian
MDA-MB-435 = test system: MDA-MB-435
NCI/ADR-RES ovarian = test system: NCI/ADR-RES ovarian
HL-60(TB) leukemia = test system: HL-60(TB) leukemia
HCC-2998 colon = test system: HCC-2998 colon
SK-OV-3 ovarian = test system: SK-OV-3 ovarian
SK-MEL-5 melanoma = test system: SK-MEL-5 melanoma
DU-145 prostate = test system: DU-145 prostate
UACC-62 melanoma = test system: UACC-62 melanoma
M14 melanoma = test system: M14 melanoma
MALME-3M melanoma = test system: MALME-3M melanoma
NCI-H23 lung = test system: NCI-H23 lung
HS 578T breast = test system: HS 578T breast
SNB-19 CNS = test system: SNB-19 CNS
SF-295 CNS = test system: SF-295 CNS
SN12C renal = test system: SN12C renal
786-0 renal = test system: 786-0 renal
SK-MEL-28 melanoma = test system: SK-MEL-28 melanoma
ACHN renal = test system: ACHN renal
SR leukemia = test system: SR leukemia
KM12 colon = test system: KM12 colon
HCT-15 colon = test system: HCT-15 colon

`O=CN/N=C/c1ccc(Cl)c([N+](=O)[O-])c1` was tested, and the TGI (NCI-H522 lung) was 19.9 µM, the GI50 (HCT-116 colon) was 0.0536 µM and the TGI (HCT-116 colon) was greater than 100 µM. It also gave a GI50 (HT29 colon) of 0.0457 µM, a TGI (HT29 colon) of 14.4 µM and a GI50 (K-562 leukemia) of 0.197 µM. For the same compound, the TGI (K-562 leukemia) was greater than 100 µM, the GI50 (SNB-75 CNS) was 0.787 µM and the TGI (SNB-75 CNS) was 31.5 µM. It also gave a GI50 (SF-539 CNS) of 0.309 µM, a TGI (SF-539 CNS) of 13.7 µM and a GI50 (A549 NSCLC) of 0.337 µM. The TGI (A549 NSCLC) was greater than 100 µM, the GI50 (OVCAR-8 ovarian) was 0.567 µM and the TGI (OVCAR-8 ovarian) was greater than 100 µM. For the same compound, the GI50 (MDA-MB-435) was 0.0611 µM, the TGI (MDA-MB-435) was 18.6 µM and the GI50 (NCI/ADR-RES ovarian) was greater than 100 µM. The TGI (NCI/ADR-RES ovarian) was greater than 100 µM, the GI50 (HL-60(TB) leukemia) was 0.125 µM and the TGI (HL-60(TB) leukemia) was 18.4 µM. It also gave a GI50 (HCC-2998 colon) of 0.37 µM, a TGI (HCC-2998 colon) of 19.6 µM and a GI50 (SK-OV-3 ovarian) of 7.33 µM. The TGI (SK-OV-3 ovarian) was greater than 100 µM, the GI50 (SK-MEL-5 melanoma) was 0.402 µM and the TGI (SK-MEL-5 melanoma) was 3.7 µM. For the same compound, the GI50 (DU-145 prostate) was 0.401 µM, the TGI (DU-145 prostate) was greater than 100 µM and the GI50 (UACC-62 melanoma) was 0.327 µM. It also gave a TGI (UACC-62 melanoma) of 14.6 µM, a GI50 (M14 melanoma) of 0.513 µM and a TGI (M14 melanoma) greater than 46.5 µM. The GI50 (MALME-3M melanoma) was 3.19 µM, the TGI (MALME-3M melanoma) was 33 µM and the GI50 (NCI-H23 lung) was 0.396 µM. The TGI (NCI-H23 lung) was 48.1 µM, the GI50 (HS 578T breast) was 9.41 µM and the TGI (HS 578T breast) was 40.7 µM. For the same compound, the GI50 (SNB-19 CNS) was 0.518 µM, the TGI (SNB-19 CNS) was 46.6 µM and the GI50 (SF-295 CNS) was 0.623 µM. It also gave a TGI (SF-295 CNS) greater than 79.9 µM, a GI50 (SN12C renal) of 0.503 µM and a TGI (SN12C renal) of 21.9 µM. For the same compound, the GI50 (786-0 renal) was 0.544 µM, the TGI (786-0 renal) was greater than 100 µM and the GI50 (SK-MEL-28 melanoma) was 0.899 µM. The TGI (SK-MEL-28 melanoma) was 24 µM, the GI50 (ACHN renal) was 5.17 µM and the TGI (ACHN renal) was greater than 100 µM. For the same compound, the GI50 (SR leukemia) was 0.126 µM, the TGI (SR leukemia) was 22.6 µM and the GI50 (KM12 colon) was 0.228 µM. The TGI (KM12 colon) was 15.1 µM, the GI50 (HCT-15 colon) was 4.14 µM and the TGI (HCT-15 colon) was greater than 100 µM.
